# Source: the supplement of paper PMC6045584
# ± gives the standard deviation of the averaged measurements.
# Columns and labels:
# TEMOZOLOMIDE = compound: Cn1nnc2c(C(N)=O)ncn2c1=O [TEMOZOLOMIDE]; assay: surviving fraction relative to DMSO-only wells; higher = less growth inhibition; conditions: exposure time: 5 days
# Method in brief: (§1)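 Viability values are CellTiter-Glo luminescence readings, given as surviving fraction against the median of DMSO-only wells. The readings were taken after 10 minutes at room temperature, following five days of continuous exposure to inhibitors at 0.5, 1, 5, 10, 50, 100, 500 and 1000 nM that began 24 hours after log-phase tumour cell lines were seeded at 250–500 cells per well in 384-well plates. Every line was screened three times and kept only if replicate Pearson r >0.7 and median Z' >0.3.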
# MLN-4924 = compound: NS(=O)(=O)OC[C@@H]1C[C@@H](n2ccc3c(N[C@H]4CCc5ccccc54)ncnc32)C[C@@H]1O [MLN-4924]; assay: as above; conditions: exposure time: 5 days
# Method in brief: as §1
Test System,surviving fraction (TEMOZOLOMIDE; 0.5 nM),surviving fraction (TEMOZOLOMIDE; 1 nM),surviving fraction (TEMOZOLOMIDE; 5 nM),surviving fraction (TEMOZOLOMIDE; 10 nM),surviving fraction (TEMOZOLOMIDE; 50 nM),surviving fraction (TEMOZOLOMIDE; 100 nM),surviving fraction (TEMOZOLOMIDE; 500 nM),surviving fraction (TEMOZOLOMIDE; 1000 nM),surviving fraction (MLN-4924; 0.5 nM),surviving fraction (MLN-4924; 1 nM),surviving fraction (MLN-4924; 5 nM),surviving fraction (MLN-4924; 10 nM),surviving fraction (MLN-4924; 50 nM),surviving fraction (MLN-4924; 100 nM),surviving fraction (MLN-4924; 500 nM),surviving fraction (MLN-4924; 1000 nM)
YAMATO SYNOVIAL,1.14 ± 0.05,1.16 ± 0.055,1.27 ± 0.13,1.35 ± 0.076,1.22 ± 0.083,1.4 ± 0.1,1.31 ± 0.12,1.38 ± 0.095,1.33 ± 0.091,1.25 ± 0.019,1.33 ± 0.085,1.31 ± 0.21,1.21 ± 0.11,0.805 ± 0.058,0.637 ± 0.041,0.492 ± 0.045
COLO320DM LARGE INTESTINE,1.21 ± 0.13,1.1 ± 0.036,1.13 ± 0.055,1.17 ± 0.12,1.1 ± 0.035,1.142 ± 0.011,1.15 ± 0.014,1.06 ± 0.047,1.1 ± 0.026,1.21 ± 0.045,1.14 ± 0.12,1.15 ± 0.1,1.06 ± 0.043,0.996 ± 0.03,0.803 ± 0.11,0.693 ± 0.03
VP229 BREAST,1.18 ± 0.11,1.18 ± 0.15,1.07 ± 0.17,1.23 ± 0.06,1.12 ± 0.073,1.26 ± 0.21,1.15 ± 0.15,1.15 ± 0.16,1.07 ± 0.16,1.08 ± 0.19,1.17 ± 0.028,1.14 ± 0.22,1.04 ± 0.033,0.891 ± 0.12,0.233 ± 0.082,0.127 ± 0.022
U2OS BONE,0.988 ± 0.017,0.988 ± 0.034,1.04 ± 0.022,1.02 ± 0.045,1.06 ± 0.029,1.06 ± 0.023,1.02 ± 0.028,1.01 ± 0.023,1.028 ± 0.0045,1.01 ± 0.015,0.988 ± 0.04,1.03 ± 0.049,1.04 ± 0.036,0.859 ± 0.022,0.403 ± 0.028,0.176 ± 0.015
SCC90 HEADNECK,0.973 ± 0.039,1.16 ± 0.11,1.05 ± 0.053,1.02 ± 0.062,1.08 ± 0.073,1.06 ± 0.2,1.1 ± 0.088,1.01 ± 0.057,1.09 ± 0.27,1.04 ± 0.042,1.04 ± 0.099,0.541 ± 0.0053,0.212 ± 0.033,0.167 ± 0.01,0.144 ± 0.018,0.16 ± 0.032
VCAP PROSTATE,0.913 ± 0.1,1.09 ± 0.089,1.04 ± 0.13,1.04 ± 0.082,0.967 ± 0.051,1.1 ± 0.09,0.991 ± 0.039,1.08 ± 0.093,0.977 ± 0.06,1.08 ± 0.074,1.08 ± 0.15,0.926 ± 0.035,0.526 ± 0.029,0.401 ± 0.088,0.198 ± 0.046,0.169 ± 0.079
SG32 HEADNECK,1.14 ± 0.019,1.44 ± 0.39,1.19 ± 0.12,1.37 ± 0.22,1.26 ± 0.071,1.13 ± 0.097,1.2 ± 0.18,1.67 ± 0.62,1.17 ± 0.11,1.05 ± 0.14,1.36 ± 0.08,1.28 ± 0.16,1.04 ± 0.044,0.797 ± 0.051,0.277 ± 0.023,0.186 ± 0.018
MDAMB157 BREAST,1.02 ± 0.067,0.986 ± 0.046,0.968 ± 0.09,1.1 ± 0.074,0.953 ± 0.06,1.11 ± 0.028,0.927 ± 0.055,0.954 ± 0.1,1 ± 0.019,0.966 ± 0.087,0.968 ± 0.07,0.931 ± 0.041,0.906 ± 0.09,0.743 ± 0.054,0.379 ± 0.043,0.267 ± 0.022
HCC1806 BREAST,1 ± 0.043,1.083 ± 0.0076,1.19 ± 0.052,1.07 ± 0.081,1.12 ± 0.086,1.09 ± 0.034,1.05 ± 0.16,1.12 ± 0.11,0.949 ± 0.094,1.02 ± 0.089,0.907 ± 0.074,0.395 ± 0.02,0.0957 ± 0.0076,0.0527 ± 0.0076,0.031,0.029 ± 0.0017
SIHA CERVIX,0.992 ± 0.024,0.996 ± 0.072,0.99 ± 0.06,1.06 ± 0.076,1.02 ± 0.021,1.06 ± 0.039,0.968 ± 0.044,1.02 ± 0.028,1.04 ± 0.11,1.07 ± 0.057,1.16 ± 0.099,1.22 ± 0.092,0.81 ± 0.086,0.611 ± 0.077,0.377 ± 0.021,0.312 ± 0.026
